Data reported in patent US9061984B2 (University of Louisville Research Foundation, Inc., priority 2008, dated 2015).
In brackets after ≈: the same amount, converted by molar mass. Read-outs that look alike come from different tables or passages of the source.

What was measured:
peritoneal macrophages = test: Toxicity to peritoneal macrophages (Trypan Blue count); format: cell-based, BALB/C mouse
VERO cells [1] = test: Cell growth inhibition bioassay (sulforhodamine B); format: cell-based, African Green Monkey; conditions: 48 h, SRB
In short: (§1)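 Cells were exposed to compound alongside matched solvent controls, then stained with sulforhodamine B. Percent growth inhibition was calculated from dye absorbance against the control.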

M. tuberculosis H37Rv [2] = test: Conventional aerobic (MABA) culture assay, luminescence MIC; format: cell-based, Mycobacterium tuberculosis; conditions: aerobic, 7 days, H37Rv
VERO cell = test: Cytotoxicity VERO cell (Table 6); conditions: Table 6
[3] = tested on: axenic amastigotes of L. amazonensis (strain MHOM/BR/76/LTB-012); conditions: Table 8b; for IC50: read-out: L. amazonensis IC50
[4] = biological target: Trypanosoma cruzi (Tulahuen C4); test: In vitro anti-T. cruzi activity (β-galactosidase CPRG colorimetric assay in VERO monolayer); format: cell-based
3T3 cells = test: Cell growth inhibition bioassay (sulforhodamine B); format: cell-based, mouse
In short: as §1

H460 cells = test: Cell growth inhibition bioassay (sulforhodamine B); format: cell-based, human; conditions: 48 h, SRB
In short: as §1

HT-29 cells = test: Cell growth inhibition bioassay (sulforhodamine B); format: cell-based, human; conditions: 48 h, SRB
In short: as §1

DU145 cells = test: Cell growth inhibition bioassay (sulforhodamine B); format: cell-based, human; conditions: 48 h, SRB
In short: as §1

MCF-7 cells = test: Cell growth inhibition bioassay (sulforhodamine B); format: cell-based, human; conditions: 48 h, SRB
In short: as §1

M-14 cells = test: Cell growth inhibition bioassay (sulforhodamine B); format: cell-based, human; conditions: 48 h, SRB
In short: as §1

K562 cells = test: Cell growth inhibition bioassay (sulforhodamine B); format: cell-based, human; conditions: 48 h, SRB
In short: as §1

VERO cells [5] = test: Cytotoxicity on VERO cells (MTT), anti-T. cruzi study; conditions: Lab B
[6] = Toxicity to peritoneal macrophages (Trypan Blue count); format: cell-based, BALB/C mouse; conditions: BALB/C, mouse, Cytotoxicity Macrophages IC50
[7] = tested on: axenic amastigotes of L. amazonensis (strain MHOM/BR/76/LTB-012); test: microbe, parasite or virus in culture; conditions: Leishmania amazonensis
[8] = Cytotoxicity on VERO cells (MTT), anti-T. cruzi study; conditions: African green monkey, VERO cells, IC50 - VERO Cytotoxicity, Table 2
M. tuberculosis MDR = test: Anti-tuberculosis bioassay (tetrazolium microplate MIC); format: cell-based; conditions: Mycobacterium tuberculosis, read-out: Mycobacterium MIC MDR
M. tuberculosis H37Rv [9] = test: as above; format: cell-based; conditions: Mycobacterium tuberculosis, read-out: Mycobacterium MIC H37Rv, Table 5

SMILES | IC50 (peritoneal macrophages) [µM] | GI50 in indicated cell line: VERO (VERO cells [1]) [µg/mL] | MIC MABA (M. tuberculosis H37Rv [2]) [µg/mL] | Cytotoxicity VERO cell (VERO cell) [µg/mL] | IC50 [3] [µM] | T. cruzi IC50 Lab A ([4]; Lab A) [µg/mL] | GI50 in indicated cell line: 3T3 (3T3 cells; 48 h, SRB) [µg/mL] | GI50 in indicated cell line: H460 (H460 cells) [µg/mL] | GI50 in indicated cell line: HT-29 (HT-29 cells) [µg/mL] | GI50 in indicated cell line: DU145 (DU145 cells) [µg/mL] | GI50 in indicated cell line: MCF-7 (MCF-7 cells) [µg/mL] | GI50 in indicated cell line: M-14 (M-14 cells) [µg/mL] | GI50 in indicated cell line: K562 (K562 cells) [µg/mL] | T. cruzi IC50 Lab B [4] [µg/mL] | Cytotoxicity VERO Lab B (VERO cells [5]) | further results
CC(C)(C)C=NNc1ncnc2sc3c(c12)CCCC3 [II-36] | 50.7 | 9.7 (≈ 33.6 µM) | 86.3 (≈ 299 µM) | 29.6 | 32.5 | 5.3 | 2.1 (≈ 7.28 µM) | 7.1 (≈ 24.6 µM) | 9.5 (≈ 32.9 µM) | 7.2 (≈ 25 µM) | 7.5 (≈ 26 µM) | 9.4 (≈ 32.6 µM) | 7.9 (≈ 27.4 µM) | – | – | –
C(=Cc1ccccc1)C=NNc1ncnc2sc3c(c12)CCCC3 [II-04] | 0.6 | 0.6 (≈ 1.79 µM) | 11.7 (≈ 35 µM) | 1.2 | 5.5 | 0.4 | 1.5 (≈ 4.49 µM) | 0.7 (≈ 2.09 µM) | 2.7 (≈ 8.07 µM) | 1.8 (≈ 5.38 µM) | 0.7 (≈ 2.09 µM) | 1.6 (≈ 4.78 µM) | 0.5 (≈ 1.5 µM) | 0.5 | 7.0 | –
NNc1ncnc2sc3c(c12)CCCC3 [PC] | – | 2.5 (≈ 11.3 µM) | 82.5 (≈ 374 µM) | 26.9 | 12 | 4.1 | – | 2.1 (≈ 9.53 µM) | 4.6 (≈ 20.9 µM) | 3.1 (≈ 14.1 µM) | 2.0 (≈ 9.08 µM) | 5.4 (≈ 24.5 µM) | 2.4 (≈ 10.9 µM) | 4.7 | 9.0 | IC50 (peritoneal macrophages; Table 8b, read-out: Cytotoxicity Macrophages IC50): 7.4 µM; GI50 in indicated cell line: 3T3 (3T3 cells): <0.98 µg/mL
COc1cc(/C=N\Nc2ncnc3sc4c(c23)CCCC4)cc(OC)c1O [II-16] | – | – | – | – | – | – | – | – | – | – | – | – | – | – | – | IC50 at 48 h [6]: 46.4 µM; GI50 (VERO cells [1]; Chlorocebus sabaeus, Vero, read-out: GI50 in indicated cell line: VERO): > 62.5 µg/mL; MIC (M. tuberculosis H37Rv [2]; Mycobacterium tuberculosis, 168 h): > 100 µg/mL; IC50 ([7]; read-out: IC50 Cytotoxicity Against Amastigotes): 21.9 µM; IC50 ([7]; read-out: L. amazonensis IC50): 15.7 µM; Selectivity Index [3]: 3.0; inhibition at 10 µg/mL ([4]; Trypanosoma cruzi, TULAHUEN, Vero, 120 h, 10 μg/mL of each compound, 120 hours, read-out: T. cruzi Inhib. (%)): 58.6%; IC50 ([4]; Trypanosoma cruzi, TULAHUEN, Vero, Lab A, read-out: T. cruzi IC50 Lab A): 4.9 µg/mL (≈ 12.7 µM); IC50 ([4]; Trypanosoma cruzi, TULAHUEN, Vero, Table 2, read-out: IC50 - T. cruzi): 8.74 µg/mL (≈ 22.7 µM); IC50 [8]: 124 µg/mL (≈ 323 µM); GI50 (3T3 cells; Mus musculus, NIH3T3, 48 h, SRB, read-out: GI50 in indicated cell line: 3T3): 10.5 µg/mL (≈ 27.3 µM); GI50 (H460 cells; Homo sapiens, NCI-H460, read-out: GI50 in indicated cell line: H460): > 62.5 µg/mL; GI50 (HT-29 cells; Homo sapiens, HT-29, read-out: GI50 in indicated cell line: HT-29): > 62.5 µg/mL; GI50 (DU145 cells; Homo sapiens, DU-145, read-out: GI50 in indicated cell line: DU145): 10.5 µg/mL (≈ 27.3 µM); GI50 (MCF-7 cells; Homo sapiens, MCF7, read-out: GI50 in indicated cell line: MCF-7): > 62.5 µg/mL; GI50 (M-14 cells; Homo sapiens, M14, read-out: GI50 in indicated cell line: M-14): > 62.5 µg/mL; GI50 (K562 cells; Homo sapiens, K562, read-out: GI50 in indicated cell line: K562): > 62.5 µg/mL; MIC (M. tuberculosis MDR): > 25 µg/mL; MIC (M. tuberculosis H37Rv [9]): > 25 µg/mL
Fc1ccc(C=NNc2ncnc3sc4c(c23)CCCC4)cc1 [II-26] | 3.1 | 4.2 (≈ 12.9 µM) | 23.2 (≈ 71.1 µM) | 12.8 | 3.2 | 1.9 | 6.7 (≈ 20.5 µM) | 3.1 (≈ 9.5 µM) | 3.4 (≈ 10.4 µM) | 4.5 (≈ 13.8 µM) | 2.4 (≈ 7.35 µM) | 5.7 (≈ 17.5 µM) | 2.9 (≈ 8.88 µM) | 6.0 | 6.0 | –
